Assay results taken from patent US10717725B2, “Pyrrolidine GPR40 modulators” (BRISTOL-MYERS SQUIBB COMPANY, priority 2014, dated 2020).
Where a name gives a salt, the structure may show the parent alone. Read-outs that look alike come from different tables or passages of the source.

How the values were obtained:
hGPR40 [1] = biological target: T1, hGPR40 (Homo sapiens, UniProt O14842); experiment: FDSS-based intracellular calcium assay in cell lines expressing GPR40; design: 3xFLAG; expressed in transfected cells; conditions: intracellular Ca2+ response, cells expressing GPR40, FDSS reader
T1 sequence (O14842 whole entry): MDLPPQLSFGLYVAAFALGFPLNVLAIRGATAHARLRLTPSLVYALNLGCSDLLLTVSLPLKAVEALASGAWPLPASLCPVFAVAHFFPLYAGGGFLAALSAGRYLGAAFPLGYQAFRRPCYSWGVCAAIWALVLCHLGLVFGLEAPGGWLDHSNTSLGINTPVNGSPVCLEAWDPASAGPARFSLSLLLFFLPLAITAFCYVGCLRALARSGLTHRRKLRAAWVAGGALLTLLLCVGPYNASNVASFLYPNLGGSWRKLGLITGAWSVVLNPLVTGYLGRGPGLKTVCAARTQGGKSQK
Experimental: FDSS-Based Intracellular Calcium Assay
Cell lines expressing GPR40 are generated using the pDEST-3×FLAG gene expression system and are cultured in culture medium comprising the following components: F12 (Gibco #11765), 10% lipid deprived fetal bovine serum, 250 μg/ml zeocin and 500 μg/ml G418. To conduct the fluorescent imaging plate reader (FLIPR)-based calcium flux assay to measure intracellular Ca^2+ response, cells expressing GPR40 are plated on 384 well plates (BD Biocoat #356697) at a density of 20,000 cells/20 μL medium per well in phenol red and serum-free DMEM (Gibco #21063-029) and incubated overnight. Using BD kit #s 80500-310 or -301, the cells are incubated with 20 μL per well of Hank's buffered salt solution with 1.7 mM probenecid and Fluo-3 at 37° C. for 30 min. Compounds are dissolved in DMSO and diluted to desired concentrations with assay buffer and added to the cells as 3× solution (20 μL per well). Run fluorescence/luminescence reader FDSS (Hamamatsu) to read intracellular Ca^2+ response.

hGPR40 [2] = biological target: T1, hGPR40

| Molecule | EC50 (hGPR40 [1]) | EC50 (hGPR40 [2]) |
| --- | --- | --- |
| CCOc1ccc(F)c(N2CCC(Oc3ccc(N4C[C@H](OCCCOC)[C@@H](C)[C@@H]4CC(=O)O)cc3)CC2)c1 [Example 3, 2-((2S,3S,4R)-1-(4-((1-(5-Ethoxy-2-fluorophenyl)piperidin-4-yl)oxy)phenyl)-4-(3-methoxypropoxy)-3-methylpyrrolidin-2-yl)acetic acid, HCl] | 200 nM | – |
| COCCCO[C@H]1CN(c2ccc(OC3CCN(c4cc(OC)ncc4Cl)CC3)cc2)[C@@H](CC(=O)O)[C@@H]1C [Example 4, 2-((2S,3S,4R)-1-(4-((1-(5-Chloro-2-methoxypyridin-4-yl)piperidin-4-yl)oxy)phenyl)-4-(3-methoxypropoxy)-3-methylpyrrolidin-2-yl)acetic acid] | 73 nM | 13 nM |
| CCOc1ccc(F)c(N2CCC(Oc3ccc(N4C[C@H](CCCOC)C[C@@H]4CC(=O)O)cc3)CC2)c1 [Example 10, 2-((2R,4R)-1-(4-((1-(5-Ethoxy-2-fluorophenyl)piperidin-4-yl)oxy)phenyl)-4-(3-methoxypropyl)pyrrolidin-2-yl)acetic acid, TFA] | 380 nM | 47 nM |
| COCCCO[C@H]1CN(c2cnc(OC3CCN(c4cc(OC)ncc4Cl)CC3C)c(C(F)(F)F)c2)[C@@H](CC(=O)O)[C@@H]1C (single isomer, unassigned) [Example 24] | 65 nM | – |
| COCCCO[C@H]1CN(c2ccc(OC3CCN(c4cc(OC)ncc4Cl)CC3C)c(F)c2)[C@@H](CC(=O)O)[C@@H]1C (single isomer, unassigned) [Example 7] | 97 nM | – |
| COCCCO[C@H]1CN(c2cnc(OC3CCN(c4cc(OC)ncc4Cl)CC3C)c(C)c2)[C@@H](CC(=O)O)[C@@H]1C (single isomer, unassigned) [Example 25] | 300 nM | – |
| COCCCO[C@H]1CN(c2ccc(OC3CCN(c4cc(OC)ncc4Cl)CC3C)nc2)[C@@H](CC(=O)O)[C@@H]1C (stereo partly drawn) [Example 2, 2-((2S,3S,4R)-1-(6-(((3,4-trans)-1-(5-Chloro-2-methoxypyridin-4-yl)-3-methylpiperidin-4-yl)oxy)pyridin-3-yl)-4-(3-methoxypropoxy)-3-methylpyrrolidin-2-yl)acetic acid, HCl] | 180 nM | 27 nM |
| CCOc1ccc(F)c(N2CCC(Oc3ccc(N4C[C@H](OCCCOC)[C@@H](C)[C@@H]4CC(=O)O)cn3)C(C)C2)c1 (single isomer, unassigned) [Example 9, HCl] | 170 nM | 35 nM |
| CCc1cc(N2CCC(Oc3ccc(N4C[C@H](OCCCOC)[C@@H](C)[C@@H]4CC(=O)O)cc3)CC2)c(Cl)cn1 [Example 8, 2-((2S,3S,4R)-1-(4-((1-(5-Chloro-2-ethylpyridin-4-yl)piperidin-4-yl)oxy)phenyl)-4-(3-methoxypropoxy)-3-methylpyrrolidin-2-yl)acetic acid, HCl] | 1100 nM | – |
| COc1cc(N2CCC(Oc3ccc(N4C[C@H](OCCCC#N)[C@@H](C)[C@@H]4CC(=O)O)cc3)C(C)C2)c(Cl)cn1 (stereo partly drawn) [Example 32, 2-((2S,3S,4R)-1-(4-(((3,4-trans)-1-(5-Chloro-2-methoxypyridin-4-yl)-3-methylpiperidin-4-yl)oxy)phenyl)-4-(3-cyanopropoxy)-3-methylpyrrolidin-2-yl)acetic acid] | 190 nM | – |
| CCOc1ccc(F)c(N2CCC(Oc3ccc(N4C[C@H](OCCCOC)[C@@H](C)[C@@H]4CC(=O)O)cn3)CC2)c1 [Example 5, 2-((2S,3S,4R)-1-(6-((1-(5-Ethoxy-2-fluorophenyl)piperidin-4-yl)oxy)pyridin-3-yl)-4-(3-methoxypropoxy)-3-methylpyrrolidin-2-yl)acetic acid] | 170 nM | – |
| 2-((2S,3S,4R)-1-(4-(((3,4-trans)-1-(5-Chloro-2-methoxypyridin-4-yl)-3-methylpiperidin-4-yl)oxy)phenyl)-4-(3-methoxy-2-methylpropoxy)-3-methylpyrrolidin-2-yl)acetic acid [Example 21, Isomer 1] | 120 nM | – |
| COCCCO[C@H]1CN(c2ccc(O[C@@H]3CCN(c4cc(OC)ncc4Cl)C[C@H]3C)cc2)[C@@H](CC(=O)O)[C@@H]1C (single isomer, unassigned) [Example 1] | 56 nM | 5 nM |
| COCCCO[C@H]1CN(c2ccc(OC3CCN(c4cc(OC)ncc4Cl)CC3CC(C)C)cc2)[C@@H](CC(=O)O)[C@@H]1C (single isomer, unassigned) [Example 19, Isomer 2] | 230 nM | – |
| COCCCO[C@H]1CN(c2ccc(OC3CCN(c4cc(OC)ncc4Cl)CC3)nc2)[C@@H](CC(=O)O)[C@@H]1C [Example 6, 2-((2S,3S,4R)-1-(6-((1-(5-Chloro-2-methoxypyridin-4-yl)piperidin-4-yl)oxy)pyridin-3-yl)-4-(3-methoxypropoxy)-3-methylpyrrolidin-2-yl)acetic acid] | 200 nM | 19 nM |
| CCOc1ccc(F)c(N2CCC(Oc3ccc(N4C[C@H](OCCCOC)[C@@H](C)[C@@H]4CC(=O)O)cc3F)C(C)C2)c1 (single isomer, unassigned) [Example 20] | 110 nM | – |
| COCCCO[C@H]1CN(c2ccc(OC3CCN(c4cc(OC)ncc4Cl)CC3CC(C)C)cc2)[C@@H](CC(=O)O)[C@@H]1C (single isomer, unassigned) [Example 19, Isomer 1] | 1500 nM | – |
| 2-((2S,3S,4R)-1-(4-(((3,4-trans)-1-(5-Chloro-2-methoxypyridin-4-yl)-3-methylpiperidin-4-yl)oxy)phenyl)-4-(3-methoxy-2-methylpropoxy)-3-methylpyrrolidin-2-yl)acetic acid [Example 21, Isomer 2] | 100 nM | – |
| COCCCO[C@H]1CN(c2ccc(OC3CCN(c4cc(OC)ncc4Cl)CC3C)cc2F)[C@@H](CC(=O)O)[C@@H]1C (single isomer, unassigned) [Example 26] | 110 nM | – |
| CCOc1ccc(F)c(N2CCC(Oc3ccc(N4C[C@H](OCCCOC)[C@@H](C)[C@@H]4CC(=O)O)cc3)C(C)C2)c1 (single isomer, unassigned) [Example 14, HCl] | 51 nM | 7 nM |
| COCCCO[C@H]1CN(c2cnc(OC3CCN(c4cc(OC)ncc4Cl)CC3)c(C(F)(F)F)c2)[C@@H](CC(=O)O)[C@@H]1C [Example 30, 2-((2S,3S,4R)-1-(6-((1-(5-Chloro-2-methoxypyridin-4-yl)piperidin-4-yl)oxy)-5-(trifluoromethyl)pyridin-3-yl)-4-(3-methoxypropoxy)-3-methylpyrrolidin-2-yl) acetic acid] | 61 nM | – |
| COCCCO[C@H]1CN(c2ccc(OC3CCN(c4cc(OC)ncc4Cl)CC3CC(C)C)nc2)[C@@H](CC(=O)O)[C@@H]1C (single isomer, unassigned) [Example 18, Isomer 2] | 290 nM | – |
| COCCCO[C@H]1CN(c2ccc(OC3CCN(c4cc(OC)ncc4Cl)CC3CC(C)C)nc2)[C@@H](CC(=O)O)[C@@H]1C (single isomer, unassigned) [Example 18, Isomer 1] | 1300 nM | – |
| CCOc1ccc(F)c(N2CCC(Oc3ccc(N4C[C@H](OCCOC)C[C@@H]4CC(=O)O)cc3)CC2)c1 [Example 13, 2-((2R,4R)-1-(4-((1-(5-Ethoxy-2-fluorophenyl)piperidin-4-yl)oxy)phenyl)-4-(2-methoxyethoxy)pyrrolidin-2-yl)acetic acid, TFA] | 1000 nM | – |
| COCCCO[C@H]1CN(c2cnc(OC3CCN(c4cc(OC)ncc4Cl)CC3C)c(F)c2)[C@@H](CC(=O)O)[C@@H]1C (single isomer, unassigned) [Example 22] | 89 nM | – |
| COCCOCO[C@H]1CN(c2ccc(OC3CCN(c4cc(OC)ncc4Cl)CC3C)cc2)[C@@H](CC(=O)O)[C@@H]1C (single isomer, unassigned) [Example 28] | 180 nM | – |
| CCOc1ccc(F)c(N2CCC(Oc3ccc(N4C[C@H](OCCCS(C)(=O)=O)[C@@H](C)[C@@H]4CC(=O)O)cc3)CC2)c1 [Example 16, 2-((2S,3 S,4R)-1-(4-((1-(5-Ethoxy-2-fluorophenyl)piperidin-4-yl)oxy)phenyl)-3-methyl-4-(3-(methylsulfonyl)propoxy)pyrrolidin-2-yl)acetic acid] | 980 nM | – |
| COCCCO[C@H]1CN(c2cnc(O[C@@H]3CCN(c4cc(OC)ncc4Cl)C[C@H]3C)nc2)[C@@H](CC(=O)O)[C@@H]1C [Example 33, 2-((2S,3 S,4R)-1-(2-(((3R,4R)-1-(5-Chloro-2-methoxypyridin-4-yl)-3-methylpiperidin-4-yl)oxy)pyrimidin-5-yl)-4-(3-methoxypropoxy)-3-methylpyrrolidin-2-yl)acetic acid] | 101 nM | – |
| COCCCO[C@H]1CN(c2ccc(OC3CCN(c4cc(OC)ncc4Cl)CC3C)cc2F)[C@H](CC(=O)O)[C@@H]1C (single isomer, unassigned) [Example 27] | 2000 nM | – |
| CCCCOc1cc(N2C[C@H](OCCCOC)[C@@H](C)[C@@H]2CC(=O)O)cnc1OC1CCN(c2cc(OC)ncc2Cl)CC1C (single isomer, unassigned) [Example 23, TFA] | 110 nM | – |
